The experiment has as its system T1, extracellular lipase from Mortierella echinosphaera CBS 575.75 (M. echinosphaera lipase).
T1 construct: native enzyme purified from culture filtrate (ammonium sulfate, Sephadex G-75, Macro-Prep High Q, Sephacryl S-200 HR); about 30 kDa by SDS-PAGE
Description: p-nitrophenol release, Lineweaver-Burk. It is filed as biochemical. The settings on record: pH 6.8, 25 °C, 30 min, 0.05-3.2 mM substrate; free enzyme.

A word on the Km: it is the concentration of substrate that gives half-maximal velocity.

Consider `CCCCCCCCCC(=O)Oc1ccc([N+](=O)[O-])cc1` [pNP-decanoate], for which the Km came out at 333 µM. As for `CCCCCCCCCCCCCCCC(=O)Oc1ccc([N+](=O)[O-])cc1` [p-nitrophenyl palmitate], the figure is 336 µM.

For the origin of these results see paper PMC5979600, “An Organic Solvent-Tolerant Lipase with Both Hydrolytic and Synthetic Activities from the Oleaginous Fungus Mortierella echinosphaera” (International Journal of Molecular Sciences, 2018).
